This is an account of results in EP4721736A1, “PHARMACEUTICAL COMPOSITION FOR EFFECTIVELY DELAYING AND TREATING MYOPIA” (priority 2023, dated 2024).

Counter-ions that a name gives are not always drawn.

The test system of series [1] is negative lens-induced myopia. Nature of the series: Choroidal thickness (OCTA) in the LIM myopia model. To be noted: after the 7-day administration experiment of Example 7; vs vehicle control group. Format: in vivo, guinea pigs. On the procedure: Using the animal subjects in Example 7, choroidal parameters were detected after completion of the experiment (a few animals died during the measurement due to reasons unrelated to the test drugs, so these samples were eliminated). Specifically, choroidal thickness was measured in the LIM myopia model animals after completion of the 7-day administration experiment. Commercially available OCTA (Spectralis HRA + OCT, OCTA, Heidelberg, Germany) modified to be more suitable for animal eyeballs was used to detect the choroidal thickness. Before detection, the guinea pigs were fully anesthetized.

Series [2] has as its system negative lens-induced myopia. Nature of the series: Negative lens-induced myopia (LIM) model in guinea pigs: interocular difference in refraction. To be noted: for refraction indicators vs vehicle group: after the end of the administration period (7 days); for refraction indicators vs vehicle group / efficacy (refraction) in comparison between groups: 0.4%, 100 µL daily; for efficacy (refraction) in comparison between groups: day 3 of administration. The text has this: (§1) Form-deprivation and lens-induced myopia models in guinea pigs are classic and recognized myopic animal models in the art, and may be used for evaluating efficacy and safety of myopia treatment drugs, and methods for establishing such models are well-known to those skilled in the art. For animal modeling and administration routes in the present application, reference is made to previously published scientific documents by the research group (Sen Zhang, Invest Ophthalmol Vis Sci. 2019 Jul 1; 60(8):3074-3083.; Miaozhen Pan, Exp Eye Res. 2021 Jan; 202:108332.).
After individuals with significant ocular diseases or abnormalities were eliminated from healthy 3-week-old tricolor guinea pigs (both males and females), by detecting refraction (using an infrared eccentric photorefraction device) and the eye axis (using A-scan ultrasonography), animals with refractive power between 3 diopters and 8.5 diopters (D), an interocular difference in refraction not exceeding 2 D, and both interocular differences in vitreous chamber depth and axial length not exceeding 0.05 mm were selected. These animals were randomly divided into the following 5 groups. • 1. Lens induction + vehicle control group (Control): monocular wear of a -4 D lens, with 100 µL of vehicle (DMSO:PEG300:Tween80:0.9% normal saline = 1:45:5:49) administrated to the lens-wearing eye daily for 1 week, and the number of samples = 11; • 2. Lens induction + R-alpha lipoic acid experimental group (R.ALA): monocular wear of a -4 D lens, with 100 µL of 0.4% R-alpha lipoic acid administrated to the lens-wearing eye daily for 1 week, and the number of samples = 15; • 3. Lens induction + S-alpha lipoic acid experimental group (S.ALA): monocular wear of a -4 D lens, with 100 µL of 0.4% S-alpha lipoic acid administrated to the lens-wearing eye daily for 1 week, and the number of samples = 13; • 4. Lens induction + dihydrolipoic acid experimental group (DHLA): monocular wear of a -4 D lens, with 100 µL of 0.4% dihydrolipoic acid administrated to the lens-wearing eye daily for 1 week, and the number of samples = 14; • 5.
Beginning on the day of modeling, the corresponding vehicle or drug was administrated to the experimental eye (lens-wearing eye) daily between 9:00 AM and 10:00 AM via periocular subconjunctival injection at an injection volume of 100 µL, once daily for 1 week. All procedures for negative lens-induced myopia modeling, peribulbar injection administration, detection of parameters such as refraction, and data processing for all the subjects were consistent with the schemes previously used by the research group (CN114796205B). At the beginning, on day 3, and at the end of the LIM model efficacy experiment, the refraction was detected in animal subjects. The statistical basis was the difference between the experimental eye (lens-wearing eye) and the contralateral eye of the same subject.

Series [3] relates to form-deprivation myopia. The series can be described thus: Form-deprivation myopia model (FDM) in guinea pigs: interocular differences in refraction and eye axis parameters.
Text: as §1
After individuals with significant eye diseases or abnormalities were eliminated from three-week-old tricolor guinea pigs, by detecting refraction (using an infrared eccentric photorefraction device) and the eye axis (using A-scan ultrasonography), animals with refractive power between 3 and 8 diopters (D), an interocular difference in refraction not exceeding 2 D, and interocular differences in vitreous chamber depth and axial length not exceeding 0.05 mm were selected. These animals were randomly divided into two groups: an FD + vehicle control group (1% DMSO + 49% PEG300 + 50% normal saline, by volume) and an FD + 0.94% lipoic acid drug treatment group. At 8:00 AM on day 1 of the experiment, form deprivation was induced in the guinea pigs using a mask method, where the right eye (experimental eye) was occluded and the left eye was left unoccluded (contralateral eye). The FD induction was maintained throughout the entire period of the lipoic acid efficacy experiment, with the hoods only briefly removed for drug administration or ocular examination (for example, refraction detection). Starting on the first day of the efficacy experiment, position of the hood was checked daily at 8:00 AM, 12:00 PM, and 7:00 PM, as well as prior to administration. Individuals with hoods fell off more than three times during the administration period were excluded. Beginning on the day of modeling, the corresponding vehicle or drug (lipoic acid formulation) was administrated to the experimental eye daily between 9:00 AM and 10:00 AM via periocular subconjunctival injection at an injection volume of 100 µL. The vehicle or drug was administrated once daily for two consecutive weeks. Interocular refraction and eye axis parameters of all subjects were measured at the start of the efficacy experiment, 1 week after administration, and after the final administration. All data collection and processing methods were the same as those previously published by the laboratory of the inventors (Pan M, Zhao F, Xie B, et al. Dietary omega-3 polyunsaturated fatty acids are protective for myopia. Proc Natl Acad Sci U S A 2021 Oct 26; 118(43):e2104689118). Statistical basis was the difference between the experimental eye and the contralateral eye in the same subject.
Utilizing the same efficacy evaluation system for myopia treatment in the guinea pig form-deprivation model as described in Example 2, the prevention and control effects of mexidol, pyridoxol, astaxanthin, and blueberry fruit extract on myopia were compared against lipoic acid. The administration route was periocular subconjunctival injection.
The same efficacy evaluation system for myopia treatment in the guinea pig form-deprivation model as described in Example 2 was utilized to evaluate the myopia treatment effects of blueberry fruit extract + lipoic acid compound formulations at different prescription ratios. The administration route was periocular subconjunctival injection.

Series [4] deals with myopia. To be noted: higher concentration of atropine; cited from earlier work.
Series [5] has as its system form-deprivation myopia. The series can be described thus: Choroidal thickness (OCT) in the guinea pig form-deprivation model. The format is in vivo, guinea pigs. The conditions noted are these: Example 9; 0.5% lipoic acid choline ester eye drops, after completion of Example 6; vs negative control group. The method, then: Choroidal thickness of all animal subjects in Example 2 were detected using Spectralis HRA + OCT (Heidelberg Engineering, Heidelberg, Germany) for 30 minutes to 60 minutes after the final administration (of either the vehicle or lipoic acid).
After completion of the experiment, the choroidal thickness was detected in animals in the two control groups and the 0.5% lipoic acid choline ester eye drop administration group in Example 6 (some animals died during the measurement due to reasons unrelated to the test drugs, so the corresponding samples were eliminated).

The test system of series [6] is presbyopia. The conditions noted are these: cited from earlier work.
The test system of series [7] is presbyopia. To be noted: interim analysis, presbyopia treatment; cited from earlier work.
Series [8] deals with myopia. To be noted: wild-type mouse myopia models; cited from earlier work.
Series [9] relates to form-deprivation-induced myopia. To be noted: mice with pigmentary degeneration of retina caused by a gene mutation (rd10); Landis et al. 2016; cited from earlier work.

Regarding `O=C(O)CCCC[C@@H](S)CCS` (racemic) [dihydrolipoic acid, Dihydrolipoic acid], the “choroidal thickness, experimental eye vs contralateral eye, FIG. 13” value in series [1] is “could effectively inhibit the decrease in choroidal thickness”. Moreover, the “refraction indicators vs vehicle group” value in series [2] is “extremely significant differences compared with the vehicle group”. Besides, in [2] (guinea pig, in vivo), the “anterior chamber depth and lens thickness, FIG. 10” value was “did not affect the anterior chamber depth and lens thickness”; the ocular irritations result is “neither the optical isomers of lipoic acid nor dihydrolipoic acid caused ocular irritations”.

Take `O=C(O)CCCC[C@@H]1CCSS1` [R-alpha lipoic acid]: the “choroidal thickness, experimental eye vs contralateral eye, FIG. 13” value in series [1] is “could more significantly increase the choroidal thickness”. For the same molecule, in the series with form-deprivation myopia [3] (Example 4, end of the administration period (2 weeks), subconjunctival injection, 0.05% atropine sulfate, 0.3% R-LA, 0.37% ES, 0.3% PH, 0.87% ASTA, 6% BFE, vs control), the “refraction (interocular difference), FIG. 4” value is “significant myopia treatment effects”. Also, in series [2], the “refraction indicators vs vehicle group” value is reported as “extremely significant differences compared with the vehicle group” and the “efficacy (refraction) in comparison between groups” value is reported as “superior to that of the dihydrolipoic acid group”.

As to `O=C(O)CCCC[C@H]1CCSS1` [S-alpha lipoic acid], in series [2], the “efficacy (refraction) in comparison between groups” value is reported as “superior to that of the dihydrolipoic acid group”.

On to `CN1[C@@H]2CC[C@H]1C[C@@H](OC(=O)C(CO)c1ccccc1)C2` (some centres unmarked) [atropine sulfate, Atropine sulfate, reference compound], for which, in the series with myopia [4], the effect upon discontinuation entry is listed as “rebound effect upon discontinuation”. Also, the “choroidal thickness, experimental eye vs contralateral eye, FIG. 13” value in series [1] is “could effectively inhibit the decrease in choroidal thickness”.

As to `C[N+](C)(C)CCOC(=O)CCCC[C@@H]1CCSS1` [lipoic acid choline ester, R-alpha-Lipoic acid choline ester], the “thinning of the choroid (choroidal thickness), FIG. 12” value with form-deprivation myopia [5] is “could effectively inhibit thinning of the choroid”. Besides, in the series on form-deprivation myopia [3] (Example 6, 0.5% LACE eye drops twice a day, 25 µL, vs vehicle), the “axial elongation, FIG. 8-1 (B)” value is on record as “significantly inhibit the axial elongation”. Further, the “dose-effect relationship of myopia treatment effect” value in the series with form-deprivation myopia [3] (Example 6, LACE eye drops 0.5% and 0.15%) is “positively related dose-effect relationship”. Further, the “progression of negative refraction, FIG. 8-1 (A)” value with form-deprivation myopia [3] (Example 6, direct eye drop instillation twice a day, 25 µL, 0.5% LACE, 0.05% atropine sulfate positive control, throughout the administration period, vs vehicle) was “could significantly inhibit progression of negative refraction”. Besides, in the series on form-deprivation myopia [3] (guinea pig, in vivo), the “anterior chamber depth, lens thickness, corneal curvature, FIG. 8-2” value was “no statistical differences”; the drug-induced mydriasis entry is reported as “did not observe drug-induced mydriasis”; the “ocular abnormalities or mydriasis” value is given as “no ocular abnormalities or mydriasis were observed”. For the same molecule, the bioavailability result with presbyopia [6] (eye drops at a concentration of 1.5%) was “good bioavailability”. In addition, the safety entry in the series on presbyopia [6] (in vivo) is “high safety”. In addition, the primary endpoint entry in the series on presbyopia [7] was “fails to meet the primary endpoint”.

As to `O=C1O[C@H]([C@@H](O)CO)C(O)=C1O` [vitamin C, ascorbic acid], the “therapeutic effects on myopia” value with myopia [8] is “failed to achieve therapeutic effects”. In series [9], the form-deprivation-induced myopia entry is listed as “inhibit form-deprivation-induced myopia”.
